Where a name gives a salt, the structure may show the parent alone.
Key:
[1] = tested on: Rattenherzen; details: isolated animal hearts (rat); Eur. Heart J. 9 (suppl.1): 167 (1988); cited from earlier work
[2] = target: T1, Na^+/H^+-Exchanger (Oryctolagus cuniculus, UniProt P23791); experiment: Inhibition of the Na+/H+ exchanger of rabbit erythrocytes (amiloride-sensitive Na+ influx, flame photometry); assay type: cell-based, Kaninchen; details: Kaninchenerythrocyten; hyperosmolar salt-sucrose medium, pH 7,4, 37°C
T1 construct: den Na^+-Influx in die Erythrocyten via Na^+/H^+-Austausch flammenphotometrisch bestimmen zu können; from tissue; host or cells: Erythrocytes in whole blood from the ear arteries of cholesterol-fed White New Zealand rabbits
T1 sequence (P23791 whole entry): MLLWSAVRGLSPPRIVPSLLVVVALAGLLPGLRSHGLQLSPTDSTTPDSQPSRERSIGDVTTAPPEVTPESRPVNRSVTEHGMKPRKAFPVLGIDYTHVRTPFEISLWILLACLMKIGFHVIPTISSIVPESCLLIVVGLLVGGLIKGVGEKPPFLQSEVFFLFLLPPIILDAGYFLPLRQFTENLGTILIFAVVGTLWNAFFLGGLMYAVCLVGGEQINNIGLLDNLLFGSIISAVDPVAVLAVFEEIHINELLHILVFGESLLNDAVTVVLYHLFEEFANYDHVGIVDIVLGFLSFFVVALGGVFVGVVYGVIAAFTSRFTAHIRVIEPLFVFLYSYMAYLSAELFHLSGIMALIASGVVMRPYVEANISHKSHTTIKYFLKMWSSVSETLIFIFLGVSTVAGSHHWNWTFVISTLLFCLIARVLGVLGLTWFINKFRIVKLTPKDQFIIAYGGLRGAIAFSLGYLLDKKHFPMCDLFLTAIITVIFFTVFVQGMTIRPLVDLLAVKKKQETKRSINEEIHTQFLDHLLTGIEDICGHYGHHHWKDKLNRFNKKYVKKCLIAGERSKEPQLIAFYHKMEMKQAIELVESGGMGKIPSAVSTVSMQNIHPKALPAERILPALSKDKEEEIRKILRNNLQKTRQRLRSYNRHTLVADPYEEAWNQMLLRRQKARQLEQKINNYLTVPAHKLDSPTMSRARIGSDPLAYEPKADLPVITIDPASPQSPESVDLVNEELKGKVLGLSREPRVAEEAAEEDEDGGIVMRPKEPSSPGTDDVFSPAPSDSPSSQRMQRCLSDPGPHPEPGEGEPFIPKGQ
Source text: Inhibition des Na^+/H^+-Exchangers von Kaninchenerythrocyten
Weiße Neuseeland-Kaninchen (Ivanovas) erhielten eine Standard-Diät mit 2% Cholesterin für sechs Wochen, um den Na^+/H^+-Austausch zu aktivieren und so den Na^+-Influx in die Erythrocyten via Na^+/H^+-Austausch flammenphotometrisch bestimmen zu können. Das Blut wurde den Ohrarterien entnommen und durch 25 IE Kalium-Heparin ungerinnbar gemacht. Ein Teil jeder Probe wurde zur Doppelbestimmung des Hämatokrits durch Zentrifugieren benutzt. Aliquots von jeweils 100 µl dienten zur Messung des Na^+-Ausgangsgehalts der Erythrocyten.
Um den Amilorid-sensitiven Natrium-Influx zu bestimmen, wurden 100 µl jeder Blutprobe in jeweils 5 ml eines hyperosmolaren Salz-Sucrose-Mediums (mmol/l: 140 NaCl, 3 KCl, 150 Sucrose, 0,1 Ouabain, 20 Tris-hydroxymethylaminomethan) bei pH 7,4 und 37°C inkubiert. Die Erythrocyten wurden danach dreimal mit eiskalter MgCl2-Ouabain-Lösung (mmol/l: 112 MgCl2, 0,1 Ouabain) gewaschen und in 2,0 ml destilliertem Wasser hämolysiert. Der intrazelluläre Natriumgehalt wurde flammenphotometrisch bestimmt.
Der Na^+-Nettoinflux wurde aus der Differenz zwischen Natrium-Ausgangswerten und dem Natriumgehalt der Erythrocyten nach Inkubation errechnet. Der Amilorid-hemmbare Natrium-Influx ergab sich aus der Differenz des Natriumgehalts der Erythrocyten nach Inkubation mit und ohne Amilorid 3 x 10^-4 mol/l. Auf diese Weise wurde auch bei den erfindungsgemäßen Verbindungen verfahren.

IC50 [2] | Structure (SMILES) | künstlich ausgelöstes Kammerflimmern [1]
– | CCN(c1nc(N)c(C(=O)NC(=N)N)nc1Cl)C(C)C [Ethylisopropylamilorid] | Noch potenter als Amilorid
1500 nM | NC(N)=NC(=O)c1ccc(C(O)(O)C(F)(F)F)cc1 [Beispiel 1, 4-(1',1'-Bishydroxy-2',2',2'-trifluor)-ethyl-benzoylguanidinhydrochlorid] | –
1000 nM | NC(N)=NC(=O)c1ccc(F)c(C(O)(O)C(F)(F)F)c1 [Beispiel 2, 4-Fluor-3-(1',1'-Bishydroxy-2',2',2'-trifluor)ethyl-benzoylguanidinhydrochlorid] | –
– | N=C(N)NC(=O)c1nc(Cl)c(N)nc1N [Amilorid] | völlig unterdrückt
300 nM | CC(C)c1ccc(C(=O)N=C(N)N)cc1C(O)(O)C(F)(F)F [Beispiel 3, 4-Isopropyl-3-(1',1'-bis-hydroxy-2',2',2'-trifluor)-ethylbenzoylguanidin-hydrochlorid] | –
